What was measured:
[1] = Intravenous bolus pharmacokinetics; assay type: in vivo, Rat; conditions: for AUC: rat, iv, 0.5 mg/kg
From the text: Following intravenous administration of a single bolus dose, Compound 1 had low systemic clearance and a long half-life in all species tested. […] The volume of distribution was greater than the total body water, indicating distribution of Compound 1 to tissues.

[2] = Oral pharmacokinetics / bioavailability; assay type: in vivo; conditions: single oral; for AUC / AUC(0-inf) / Cmax / MRT / Tmax / half-life: in vivo
From the text: The bioavailability in monkey (greater than 100%) may be explained by the tenfold difference between the IV and oral doses. Compound 1 was rapidly absorbed in all species, with maximum systemic concentration observed within approximately one to three hours of dosing.

[3] = test system: CYP3A4; assay: CYP3A4 Induction in Human Hepatocytes; assay type: in vitro ADME
Description: CYP activity was determined by monitoring metabolite formation of specific CYP probe substrates (phenacetin for CYP1A2 and testosterone for CYP3A4) using LC-MS/MS. CYP messenger ribonucleic acid (mRNA) was analyzed by RT-PCR to confirm CYP induction potential.

[4] = molecular target: CYP2B6 (Homo sapiens, UniProt P20813); assay: Metabolism by Recombinant CYP Enzymes; assay type: in vitro ADME; conditions: 1 μM, recombinant CYP2B6, NADPH
Description: (§1) Microsomes that contained recombinant CYP enzymes (CYP1A2, 2B6, 2C8, 2C9, 2C19, 2D6, 2E1 and 3A4) were used to determine which CYP catalyzes the oxidation of Compound 1. Accordingly, Compound 1 (1 μM) was incubated with individual recombinant CYPs in the presence of the cofactor NADPH. The percent parent drug remaining at the end of the incubation period was determined by LC-MS/MS and compared to that present at the beginning.

[5] = molecular target: CYP2E1 (Homo sapiens, UniProt P05181); assay: Metabolism by Recombinant CYP Enzymes; assay type: in vitro ADME; conditions: 1 μM, recombinant CYP2E1, NADPH
Description: as §1

[6] = molecular target: CYP2D6 (Homo sapiens, UniProt P10635); assay: Metabolism by Recombinant CYP Enzymes; assay type: in vitro ADME; conditions: 1 μM, recombinant CYP2D6, NADPH
Description: as §1

[7] = molecular target: CYP2C9 (Homo sapiens, UniProt P11712); assay: Metabolism by Recombinant CYP Enzymes; assay type: in vitro ADME; conditions: 1 μM, recombinant CYP2C9, NADPH
Description: as §1

[8] = molecular target: CYP3A4 (Homo sapiens, UniProt P08684); assay: Metabolism by Recombinant CYP Enzymes; assay type: in vitro ADME; conditions: 1 μM
Description: as §1

[9] = molecular target: CYP2C19 (Homo sapiens, UniProt P33261); assay: Metabolism by Recombinant CYP Enzymes; assay type: in vitro ADME; conditions: 1 μM, recombinant CYP2C19, NADPH
Description: as §1

[10] = molecular target: CYP2C8 (Homo sapiens, UniProt P10632); assay: Metabolism by Recombinant CYP Enzymes; assay type: in vitro ADME; conditions: 1 μM, recombinant CYP2C8, NADPH
Description: as §1

[11] = molecular target: CYP1A2 (Homo sapiens, UniProt P05177); assay: Metabolism by Recombinant CYP Enzymes; assay type: in vitro ADME; conditions: 1 μM, recombinant CYP1A2, NADPH
Description: as §1

[12] = Rat, single IV bolus, 0.5 mg/kg nominal
[13] = plasma, Rat, single IV bolus, 0.5 mg/kg nominal
[14] = Dog, 3 mg/kg nominal, spray-dried dispersion
[15] = Monkey, 5 mg/kg nominal, spray-dried dispersion
[16] = Mouse, 1 mg/kg nominal, 0.2% MC/1% SLS

Chain of CYP3A4 (Homo sapiens, UniProt P08684) (P08684 whole entry): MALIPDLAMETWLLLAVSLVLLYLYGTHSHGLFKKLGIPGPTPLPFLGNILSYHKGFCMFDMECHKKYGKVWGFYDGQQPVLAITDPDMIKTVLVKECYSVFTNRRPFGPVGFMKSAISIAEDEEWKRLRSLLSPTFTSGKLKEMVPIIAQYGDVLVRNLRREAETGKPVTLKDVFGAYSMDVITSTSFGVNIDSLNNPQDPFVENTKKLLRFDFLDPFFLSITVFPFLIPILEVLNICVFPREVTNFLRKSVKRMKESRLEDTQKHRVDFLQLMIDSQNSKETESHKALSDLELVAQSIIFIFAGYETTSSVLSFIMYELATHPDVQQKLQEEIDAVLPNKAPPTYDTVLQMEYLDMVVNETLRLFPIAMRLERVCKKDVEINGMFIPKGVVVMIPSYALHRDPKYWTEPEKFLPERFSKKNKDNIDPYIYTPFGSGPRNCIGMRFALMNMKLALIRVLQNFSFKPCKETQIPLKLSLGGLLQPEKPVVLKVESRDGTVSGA
Chain of CYP2C8 (P10632 whole entry): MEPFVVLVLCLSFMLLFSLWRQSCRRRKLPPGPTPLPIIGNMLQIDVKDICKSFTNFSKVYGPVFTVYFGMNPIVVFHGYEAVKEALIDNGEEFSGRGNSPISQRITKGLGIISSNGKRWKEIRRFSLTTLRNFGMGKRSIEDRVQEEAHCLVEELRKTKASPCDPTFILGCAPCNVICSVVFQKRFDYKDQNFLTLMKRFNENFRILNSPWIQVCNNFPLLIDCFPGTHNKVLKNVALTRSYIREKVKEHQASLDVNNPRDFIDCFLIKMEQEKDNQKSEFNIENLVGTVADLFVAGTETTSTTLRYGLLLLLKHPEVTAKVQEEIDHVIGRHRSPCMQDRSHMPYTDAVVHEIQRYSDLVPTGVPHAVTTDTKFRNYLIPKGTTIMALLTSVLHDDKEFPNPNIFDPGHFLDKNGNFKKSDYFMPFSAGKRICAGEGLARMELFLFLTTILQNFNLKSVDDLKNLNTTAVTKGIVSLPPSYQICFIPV
Chain of CYP1A2 (P05177 whole entry): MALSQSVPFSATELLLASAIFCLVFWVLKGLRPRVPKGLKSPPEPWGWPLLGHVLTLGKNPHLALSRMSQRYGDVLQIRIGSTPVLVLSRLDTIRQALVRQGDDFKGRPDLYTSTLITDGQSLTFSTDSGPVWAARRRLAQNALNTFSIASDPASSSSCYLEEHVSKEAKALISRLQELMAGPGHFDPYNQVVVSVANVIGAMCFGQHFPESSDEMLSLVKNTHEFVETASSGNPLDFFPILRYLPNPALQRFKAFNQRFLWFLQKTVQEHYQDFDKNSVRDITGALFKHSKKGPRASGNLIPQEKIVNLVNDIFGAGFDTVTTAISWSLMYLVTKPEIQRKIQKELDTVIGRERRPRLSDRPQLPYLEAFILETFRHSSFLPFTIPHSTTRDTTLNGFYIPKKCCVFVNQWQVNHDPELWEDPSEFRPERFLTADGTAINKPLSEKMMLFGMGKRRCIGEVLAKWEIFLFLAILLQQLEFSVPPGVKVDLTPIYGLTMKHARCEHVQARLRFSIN
Chain of CYP2E1 (P05181 whole entry): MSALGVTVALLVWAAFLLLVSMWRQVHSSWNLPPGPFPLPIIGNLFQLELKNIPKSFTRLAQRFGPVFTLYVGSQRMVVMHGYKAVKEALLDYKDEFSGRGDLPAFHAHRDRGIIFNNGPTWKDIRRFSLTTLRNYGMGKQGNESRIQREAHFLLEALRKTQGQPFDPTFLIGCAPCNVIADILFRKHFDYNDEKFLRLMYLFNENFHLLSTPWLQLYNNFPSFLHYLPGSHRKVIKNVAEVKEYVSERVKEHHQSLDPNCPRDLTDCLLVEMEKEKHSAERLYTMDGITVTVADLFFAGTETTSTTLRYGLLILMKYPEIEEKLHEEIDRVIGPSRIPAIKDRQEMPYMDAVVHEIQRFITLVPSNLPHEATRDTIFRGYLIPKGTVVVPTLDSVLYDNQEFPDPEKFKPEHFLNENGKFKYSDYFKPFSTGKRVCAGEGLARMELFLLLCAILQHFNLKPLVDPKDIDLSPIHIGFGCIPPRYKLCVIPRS
Chain of CYP2B6 (P20813 whole entry): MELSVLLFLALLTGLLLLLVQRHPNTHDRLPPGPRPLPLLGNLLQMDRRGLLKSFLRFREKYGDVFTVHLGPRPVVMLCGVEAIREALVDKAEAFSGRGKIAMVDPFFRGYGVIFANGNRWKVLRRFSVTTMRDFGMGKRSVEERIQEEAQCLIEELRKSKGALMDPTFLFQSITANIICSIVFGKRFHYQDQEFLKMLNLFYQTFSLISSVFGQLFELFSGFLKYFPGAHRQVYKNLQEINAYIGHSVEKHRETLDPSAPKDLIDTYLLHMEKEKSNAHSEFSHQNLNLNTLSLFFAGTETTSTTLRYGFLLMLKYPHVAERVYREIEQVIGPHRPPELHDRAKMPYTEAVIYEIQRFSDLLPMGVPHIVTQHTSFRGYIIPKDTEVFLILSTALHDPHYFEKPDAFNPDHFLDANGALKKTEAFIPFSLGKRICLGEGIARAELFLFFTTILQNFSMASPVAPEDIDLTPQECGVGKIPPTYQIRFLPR
Chain of CYP2D6 (P10635 whole entry): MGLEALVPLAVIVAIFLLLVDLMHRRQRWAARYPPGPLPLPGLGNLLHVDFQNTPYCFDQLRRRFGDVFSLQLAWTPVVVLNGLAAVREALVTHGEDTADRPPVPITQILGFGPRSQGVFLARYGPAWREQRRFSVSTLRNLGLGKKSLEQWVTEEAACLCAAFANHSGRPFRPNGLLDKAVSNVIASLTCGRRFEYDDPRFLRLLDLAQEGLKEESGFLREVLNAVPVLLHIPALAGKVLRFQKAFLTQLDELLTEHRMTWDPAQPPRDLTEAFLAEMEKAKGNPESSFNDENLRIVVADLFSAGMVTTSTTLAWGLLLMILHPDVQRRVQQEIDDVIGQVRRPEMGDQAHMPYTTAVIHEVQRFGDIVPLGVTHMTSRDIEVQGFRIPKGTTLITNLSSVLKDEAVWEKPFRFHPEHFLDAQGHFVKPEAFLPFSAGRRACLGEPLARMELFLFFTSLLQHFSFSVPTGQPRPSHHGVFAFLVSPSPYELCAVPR
Chain of CYP2C19 (P33261 whole entry): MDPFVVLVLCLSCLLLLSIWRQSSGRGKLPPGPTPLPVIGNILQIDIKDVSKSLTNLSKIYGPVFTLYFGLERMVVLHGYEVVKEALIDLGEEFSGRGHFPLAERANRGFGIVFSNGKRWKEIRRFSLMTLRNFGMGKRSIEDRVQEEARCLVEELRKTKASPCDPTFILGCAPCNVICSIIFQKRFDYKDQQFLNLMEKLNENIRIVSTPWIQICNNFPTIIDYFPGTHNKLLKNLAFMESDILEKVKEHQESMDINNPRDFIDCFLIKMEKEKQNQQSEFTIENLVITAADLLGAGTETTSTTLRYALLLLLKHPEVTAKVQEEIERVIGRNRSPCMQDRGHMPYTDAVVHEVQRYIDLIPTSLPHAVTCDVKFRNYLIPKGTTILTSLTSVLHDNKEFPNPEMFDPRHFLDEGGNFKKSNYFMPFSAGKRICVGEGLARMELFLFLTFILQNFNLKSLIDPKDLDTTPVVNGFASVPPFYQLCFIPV
Chain of CYP2C9 (P11712 whole entry): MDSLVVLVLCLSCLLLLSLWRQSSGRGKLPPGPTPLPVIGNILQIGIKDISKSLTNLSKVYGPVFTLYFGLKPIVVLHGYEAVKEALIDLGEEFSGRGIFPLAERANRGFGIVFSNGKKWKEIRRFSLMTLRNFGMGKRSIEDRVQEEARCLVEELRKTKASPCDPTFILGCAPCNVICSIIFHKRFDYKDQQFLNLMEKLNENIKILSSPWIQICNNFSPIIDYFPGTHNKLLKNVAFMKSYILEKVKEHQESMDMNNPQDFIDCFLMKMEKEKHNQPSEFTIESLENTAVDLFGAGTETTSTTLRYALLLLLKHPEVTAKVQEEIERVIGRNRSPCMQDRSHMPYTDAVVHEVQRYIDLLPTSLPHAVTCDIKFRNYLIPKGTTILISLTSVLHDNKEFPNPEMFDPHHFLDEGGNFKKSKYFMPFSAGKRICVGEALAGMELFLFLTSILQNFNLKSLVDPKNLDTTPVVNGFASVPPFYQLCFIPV

Cc1cc(-c2cncc([C@@H](O)C(F)(F)F)c2)nc2c1C(=O)N(c1cnn(CC(F)F)c1)C2(C)C [Compound 1, (R)-6-(1-(2,2-difluoroethyl)-1H-pyrazol-4-yl)-4,7,7-trimethyl-2-(5-(2,2,2-trifluoro-1-hydroxyethyl)pyridin-3-yl)-6,7-dihydro-5H-pyrrolo[3,4-b]pyridin-5-one]
% HBF (hepatic blood flow) [1, 12]: ~3.6% | DN_AUCINF [1, 12]: 6.2 µg·h/mL | AUC(0-inf) [1, 13]: 3.1 µg·h/mL | half-life [1, 13]: 8.2 h | clearance ([1]; plasma, Rat, single IV bolus, 0.5 mg/kg nominal, read-out: CL): 0.168 L/h/kg | Vd ([1]; plasma, Rat, single IV bolus, 0.5 mg/kg nominal, read-out: Vss): 1.8 L/kg | AUC ([1]; plasma, Intravenous bolus, 0.5 mg/kg nominal dose, read-out: Rat IV AUC): 3.1 µg·h/mL | AUC ([1]; plasma, Rat, single IV bolus, 0.5 mg/kg nominal, read-out: AUCALL): 2.69 µg·h/mL | DN_AUCINF [2, 14]: 3.1 µg·h/mL | F ([2]; Dog, 3 mg/kg nominal, spray-dried dispersion, 3 mg/kg): 77% | DN_AUCINF [2, 15]: 2.5 µg·h/mL | DN_AUCINF [2, 16]: 2.76 µg·h/mL | F ([2]; Mouse, 1 mg/kg nominal, 0.2% MC/1% SLS, 1 mg/kg): 81% | AUC [2, 14]: 9.11 µg·h/mL | AUC(0-inf) [2, 14]: 9.29 µg·h/mL | Cmax [2, 14]: 1.29 µg/mL | MRT [2, 14]: 9 h | Tmax [2, 14]: 0.83 h | half-life [2, 14]: 7.3 h | AUC [2, 15]: 12.3 µg·h/mL | AUC(0-inf) [2, 15]: 12.5 µg·h/mL | Cmax [2, 15]: 1.35 µg/mL | MRT [2, 15]: 10.5 h | Tmax [2, 15]: 1.67 h | half-life [2, 15]: 8.5 h | AUC [2, 16]: 2.72 µg·h/mL | AUC(0-inf) [2, 16]: 2.76 µg·h/mL | Cmax [2, 16]: 0.29 µg/mL | MRT [2, 16]: 5.8 h | Tmax [2, 16]: 2 h | half-life [2, 16]: 3.8 h | CYP3A4 mRNA message ([3]; 0.5 μM, lot 8123): 0.4 fold change | Testosterone-6β-Hydroxylation ([3]; 0.5 μM, lot 8123): 0.3 fold change | CYP3A4 mRNA message ([3]; 0.5 μM, lot LMP): 1.0 fold change | Testosterone-6β-Hydroxylation ([3]; 0.5 μM, lot LMP): 0.9 fold change | CYP3A4 mRNA message ([3]; 0.5 μM, lot YOW): 1.3 fold change | Testosterone-6β-Hydroxylation ([3]; 0.5 μM, lot YOW): 1.0 fold change | CYP3A4 mRNA message ([3]; 1.0 μM, lot 8123): 0.3 fold change | Testosterone-6β-Hydroxylation ([3]; 1.0 μM, lot 8123): 0.5 fold change | CYP3A4 mRNA message ([3]; 1.0 μM, lot LMP): 0.7 fold change | Testosterone-6β-Hydroxylation ([3]; 1.0 μM, lot LMP): 0.8 fold change | CYP3A4 mRNA message ([3]; 1.0 μM, lot YOW): 0.2 fold change | Testosterone-6β-Hydroxylation ([3]; 1.0 μM, lot YOW): 0.8 fold change | CYP3A4 mRNA message ([3]; 5.0 μM, lot 8123): 0.5 fold change | Testosterone-6β-Hydroxylation ([3]; 5.0 μM, lot 8123): 0.4 fold change | CYP3A4 mRNA message ([3]; 5.0 μM, lot LMP): 1.1 (1.1) fold change | Testosterone-6β-Hydroxylation ([3]; 5.0 μM, lot LMP): 1.1 (1.1) fold change | Testosterone-6β-Hydroxylation ([3]; 5.0 μM, lot YOW): 0.9 (NR^1) fold change | CYP3A4 mRNA message ([3]; 10.0 μM, lot 8123): 1.1 fold change | Testosterone-6β-Hydroxylation ([3]; 10.0 μM, lot 8123): 0.4 fold change | CYP3A4 mRNA message ([3]; 10.0 μM, lot LMP): 1.5 fold change | Testosterone-6β-Hydroxylation ([3]; 10.0 μM, lot LMP): 1.1 fold change | Testosterone-6β-Hydroxylation ([3]; 10.0 μM, lot YOW): 0.8 (NR^1) fold change | CYP3A4 mRNA message ([3]; 20.0 μM, lot 8123): 0.7 fold change | Testosterone-6β-Hydroxylation ([3]; 20.0 μM, lot 8123): 0.6 fold change | CYP3A4 mRNA message ([3]; 20.0 μM, lot LMP): 3.0 fold change | Testosterone-6β-Hydroxylation ([3]; 20.0 μM, lot LMP): 1.4 fold change | Testosterone-6β-Hydroxylation ([3]; 20.0 μM, lot YOW): 0.6 (NR^1) fold change | Testosterone-6β-Hydroxylation ([3]; 30.0 μM, lot 8123): 0.7 (NR^2) fold change | CYP3A4 mRNA message ([3]; 30.0 μM, lot LMP): 2.5 fold change | Testosterone-6β-Hydroxylation ([3]; 30.0 μM, lot LMP): 1.0 fold change | Testosterone-6β-Hydroxylation ([3]; 30.0 μM, lot YOW): 0.6 (NR^1) fold change | change in CYP3A4 activity and mRNA levels, % of the positive control ([3]; all three hepatocyte lots, 48 hour exposure): less than 20% | % Parent Remaining @ 30 min [4]: 107% | % Parent Remaining @ 30 min [5]: 105% | % Parent Remaining @ 30 min [6]: 100% | % Parent Remaining @ 30 min [7]: 108% | Metabolism by recombinant CYPs ([8]; in words): detected only in the incubation with CYP3A4 | % Parent Remaining @ 30 min ([8]; recombinant CYP3A4, NADPH): 92% | % Parent Remaining @ 30 min [9]: 118% | % Parent Remaining @ 30 min [10]: 105% | % Parent Remaining @ 30 min [11]: 105%

— patent US10301304B2, “Selective inhibitor of phosphatidylinositol 3-kinase-gamma” (VERTEX PHARMACEUTICALS INCORPORATED, priority 2013, dated 2019)
